Results taken from patent US20150004134A1, “TREATMENT OF CANCER WITH HETEROCYCLIC INHIBITORS OF GLUTAMINASE” (Calithera Biosciences, Inc., priority 2012, published 2015).

Test system: P493-6 (myc "on") cells
Experiment: Cell Proliferation Assay
Assay type: cell-based
Conditions: P493-6, 72 h, read-out: Cell prolif P493 72 h IC50, P493 cells, 72 h
Experimental: P493-6 (myc “on”) cells were maintained in growth media (RPMI-1640, 10% FBS, 2 mM glutamine, 100 units/ml Penicillin and 100 μg/ml streptomycin) at 37° C. with 5% CO2. For compound assay, P493-6 cells were plated in 96-well V-bottom plates on the day of compound addition in 50 μl of growth media at a cell density of 200,000 cells/ml (10,000 cells/well). Compounds were serially diluted in 100% DMSO at 200-times the final concentration. Compounds were diluted 100-fold into growth media and then 50 μl of this mixture was added to cell plates making the final concentration of DMSO 0.5%. Cells were incubated with compound for 72 hrs at 37° C. with 5% CO2 and analyzed for antiproliferative effects either by Cell Titer Glo (Promega) or FACS analysis using the Viacount (Millipore) kit on the Guava instrument.

SMILES | IC50
N[C@H](C(=O)Nc1nnc(CCSCCc2nnc(NC(=O)[C@@H](N)c3ccccc3)s2)s1)c1ccccc1 [Compound 175] | 23000 nM
O=C(Nc1nnc(CCCc2nnc(NC(=O)C(CO)c3ccccc3)s2)s1)C(CO)c1ccccc1 (stereo not drawn) [Compound 176] | 1500 nM
O=C(CC(C(=O)O)c1ccccc1)Nc1nnc(CCCCc2nnc(NC(=O)CC(C(=O)O)c3ccccc3)s2)s1 (stereo not drawn) [Compound 177] | > 50000 nM
COC(=O)C(CC(=O)Nc1nnc(CCCCc2nnc(NC(=O)CC(C(=O)O)c3ccccc3)s2)s1)c1ccccc1 (stereo not drawn) [Compound 178] | > 50000 nM
O=C(CCC(C(=O)O)c1ccccc1)Nc1nnc(CCSCCc2nnc(NC(=O)CCC(C(=O)O)c3ccccc3)s2)s1 (stereo not drawn) [Compound 179] | > 50000 nM
O=C(Nc1nnc(CCSCCc2nnc(NC(=O)c3ccccc3CO)s2)s1)c1ccccc1CO [Compound 180] | > 50000 nM
O=C(Cc1ccccc1CO)Nc1nnc(CCSCCc2nnc(NC(=O)Cc3ccccc3CO)s2)s1 [Compound 181, N,N′-(5,5′-(thiobis(ethane-2,1-diyl))bis(1,3,4-thiadiazole-5,2-diyl))bis(2-(2-(hydroxymethyl)phenyl)acetamide)] | 30000 nM
CS(=O)(=O)c1ccc(CC(=O)Nc2nnc(CCSCCc3nnc(NC(=O)Cc4ccc(S(C)(=O)=O)cc4)s3)s2)cc1 [Compound 182] | > 50000 nM
CC(C)(C)OC(=O)Nc1ccc(CC(=O)Nc2nnc(CCSCCc3nnc(NC(=O)Cc4ccc(NC(=O)OC(C)(C)C)cc4)s3)s2)cc1 [Compound 185] | 90 nM
N[C@@H](C(=O)Nc1nnc(CCCCc2nnc(NC(=O)[C@H](N)c3ccccc3)s2)s1)c1ccccc1 [Compound 186] | 13000 nM
N[C@H](C(=O)Nc1nnc(CCCCc2nnc(NC(=O)[C@@H](N)c3ccccc3)s2)s1)c1ccccc1 [Compound 187] | 21000 nM
O=C(Nc1nnc(CCCCc2nnc(NC(=O)C(CO)c3cccs3)s2)s1)C(CO)c1cccs1 (stereo not drawn) [Compound 190] | 490 nM
CC(C)(C)OC(=O)Nc1ccc(CC(=O)Nc2nnc(CCCCc3nnc(NC(=O)Cc4ccc(NC(=O)OC(C)(C)C)cc4)s3)s2)cc1 [Compound 192] | 30 nM
Nc1ccc(CC(=O)Nc2nnc(CCSCCc3nnc(NC(=O)Cc4ccc(N)cc4)s3)s2)cc1 [Compound 195] | 1300 nM
Nc1ccc(CC(=O)Nc2nnc(CCCCc3nnc(NC(=O)Cc4ccc(N)cc4)s3)s2)cc1 [Compound 196] | 610 nM
NS(=O)(=O)c1ccc(CC(=O)Nc2nnc(CCCCc3nnc(NC(=O)Cc4ccc(S(N)(=O)=O)cc4)s3)s2)cc1 [Compound 198] | > 50000 nM
O=C(Cc1ccccc1)Nc1nnc(CCSCc2nnc(NC(=O)Cc3ccccc3)s2)s1 [Compound 199] | 170 nM
COCCOC(C(=O)Nc1nnc(CCCCc2nnc(NC(=O)C(OCCOC)c3ccccc3)s2)s1)c1ccccc1 (stereo not drawn) [Compound 203] | 1700 nM
COCC(C(=O)Nc1nnc(CCSCCc2nnc(NC(=O)C(COC)c3ccccc3)s2)s1)c1ccccc1 (stereo not drawn) [Compound 204] | 2400 nM
O=C(Cc1ccccc1CO)Nc1nnc(CCCCc2nnc(NC(=O)Cc3ccccc3CO)s2)s1 [Compound 208] | 9000 nM
C=CCC(C(=O)Nc1nnc(CCCCc2nnc(NC(=O)C(CC=C)c3ccccc3)s2)s1)c1ccccc1 (stereo not drawn) [Compound 209] | 22000 nM

SMILES | IC50
O=C(Nc1nnc(CCCCc2nnc(NC(=O)[C@@H](O)c3ccccc3Cl)s2)s1)[C@@H](O)c1ccccc1Cl [Compound 210] | 420 nM
O=C(Nc1nnc(CCCCc2nnc(NC(=O)C(O)c3cccc(F)c3F)s2)s1)C(O)c1cccc(F)c1F (stereo not drawn) [Compound 211] | 1000 nM
O=C(Cn1ccc2ccccc21)Nc1nnc(CCSCCc2nnc(NC(=O)Cn3ccc4ccccc43)s2)s1 [Compound 213] | 4400 nM
NCCC(C(=O)Nc1nnc(CCSCCc2nnc(NC(=O)C(CN)c3ccccc3)s2)s1)c1ccccc1 (stereo not drawn) [Compound 214] | 1200 nM
N#Cc1ccc(CC(=O)Nc2nnc(CCSCCc3nnc(NC(=O)Cc4ccc(C#N)cc4)s3)s2)cc1 [Compound 216] | > 50000 nM
NS(=O)(=O)c1ccc(CC(=O)Nc2nnc(CCSCCc3nnc(NC(=O)Cc4ccc(S(N)(=O)=O)cc4)s3)s2)cc1 [Compound 217] | > 50000 nM
COc1ccccc1CC(=O)Nc1nnc(CCSCCc2nnc(NC(=O)Cc3ccccc3OC)s2)s1 [Compound 219] | 570 nM
COC(=O)C(C(=O)Nc1nnc(CCCCc2nnc(NC(=O)C(C(=O)OC)c3ccccc3)s2)s1)c1ccccc1 (stereo not drawn) [Compound 220] | 310 nM
O=C(Nc1nnc(CCCCc2nnc(NC(=O)[C@@H](O)[C@H](O)c3ccccc3)s2)s1)[C@@H](O)[C@H](O)c1ccccc1 [Compound 226] | > 50000 nM
Nc1nnc(CCCCc2nnc(NC(=O)C(CO)c3ccccc3)s2)s1 (stereo not drawn) [Compound 227] | 3300 nM
O=C(CCN1CCOCC1)OCC(C(=O)Nc1nnc(CCCCc2nnc(NC(=O)C(CO)c3ccccc3)s2)s1)c1ccccc1 (stereo not drawn) [Compound 228, 3-((5-{4-[5-(3-hydroxy-2-phenylpropanamido)-1,3,4-thiadiazol-2-yl]butyl}-1,3,4-thiadiazol-2-yl)amino)-3-oxo-2-phenylpropyl 3-morpholinopropanoate] | 130 nM
COC(=O)C(C(=O)Nc1nnc(CCSCCc2nnc(NC(=O)C(C(=O)OC)c3ccccc3)s2)s1)c1ccccc1 (stereo not drawn) [Compound 234] | 2500 nM
O=C(Cc1cccc(OCCO)c1)Nc1nnc(CCSCCc2nnc(NC(=O)Cc3cccc(OCCO)c3)s2)s1 [Compound 236] | 1400 nM
O=C(Cc1cccs1)Nc1nnc(CCSCc2nnc(NC(=O)Cc3cccs3)s2)s1 [Compound 237] | 250 nM
O=C(Cc1cccc(OCCN2CCOCC2)c1)Nc1nnc(CCSCCc2nnc(NC(=O)Cc3cccc(OCCN4CCOCC4)c3)s2)s1 [Compound 240] | 1300 nM
O=C(CN1C(=O)OC[C@H]1c1ccccc1)Nc1nnc(CCSCCc2nnc(NC(=O)CN3C(=O)OC[C@H]3c3ccccc3)s2)s1 [Compound 243] | 33000 nM
COc1ccccc1C(CO)C(=O)Nc1nnc(CCSCCc2nnc(NC(=O)C(CO)c3ccccc3OC)s2)s1 (stereo not drawn) [Compound 245] | 2500 nM
COc1ccccc1CC(=O)Nc1nnc(CCSCCc2nnc(NC(=O)C(CO)c3ccccc3OC)s2)s1 (stereo not drawn) [Compound 246] | 1600 nM
Cc1cccc(CC(=O)Nc2nnc(CCSCCc3nnc(NC(=O)Cc4cccc(C)c4)s3)s2)c1 [Compound 247] | 830 nM
COc1ccccc1CC(=O)Nc1nnc(CCSCc2nnc(NC(=O)Cc3ccccc3OC)s2)s1 [Compound 249] | 160 nM
COCOCCOC(C(=O)Nc1nnc(CCCCc2nnc(NC(=O)C(OCCOCOC)c3ccccc3)s2)s1)c1ccccc1 (stereo not drawn) [Compound 251] | 2800 nM

SMILES | IC50
O=C(Nc1nnc(CCCCc2nnc(NC(=O)C(OCCO)c3ccccc3)s2)s1)C(OCCO)c1ccccc1 (stereo not drawn) [Compound 252] | 6300 nM
COc1cccc(C(CO)C(=O)Nc2nnc(CCCCc3nnc(NC(=O)C(CO)c4cccc(OC)c4)s3)s2)c1 (stereo not drawn) [Compound 257] | 73 nM
COc1cccc(C(CO)C(=O)Nc2nnc(CCSCc3nnc(NC(=O)C(CO)c4cccc(OC)c4)s3)s2)c1 (stereo not drawn) [Compound 258] | 180 nM
COc1cccc(CC(=O)Nc2nnc(CCSCCc3nnc(NC(=O)Cc4cccc(OC)c4OC)s3)s2)c1OC [Compound 259] | 570 nM
COc1cccc(CC(=O)Nc2nnc(CCCCc3nnc(NC(=O)Cc4cccc(OC)c4OC)s3)s2)c1OC [Compound 260] | 84 nM
CC(C(=O)Nc1nnc(CCSCCc2nnc(NC(=O)C(C)c3ccccc3Cl)s2)s1)c1ccccc1Cl (stereo not drawn) [Compound 261] | 2600 nM
Cc1ccccc1C(C)C(=O)Nc1nnc(CCSCCc2nnc(NC(=O)C(C)c3ccccc3C)s2)s1 (stereo not drawn) [Compound 262] | 3100 nM
COc1ccccc1C(C)C(=O)Nc1nnc(CCSCCc2nnc(NC(=O)C(C)c3ccccc3OC)s2)s1 (stereo not drawn) [Compound 263] | 3900 nM
COc1ccccc1CC(=O)Nc1nnc(CCCCc2nnc(NC(=O)Cc3ccccc3OC)s2)s1 [Compound 264] | 10 nM
COc1ccc(OC)c(CC(=O)Nc2nnc(CCCc3nnc(NC(=O)Cc4cc(OC)ccc4OC)s3)s2)c1 [Compound 265] | 310 nM
CC(=O)NCC(C(=O)Nc1nnc(CCCCc2nnc(NC(=O)C(CNC(C)=O)c3ccccc3)s2)s1)c1ccccc1 (stereo not drawn) [Compound 266] | > 50000 nM
O=C(Cc1cccc(OCCN2CCOCC2)c1)Nc1nnc(CCSCc2nnc(NC(=O)Cc3cccc(OCCN4CCOCC4)c3)s2)s1 [Compound 267] | 640 nM
O=C(Cc1ccc2ncccc2c1)Nc1nnc(CCSCCc2nnc(NC(=O)Cc3ccc4ncccc4c3)s2)s1 [Compound 268] | 5400 nM
O=C(Cc1ccc2ncccc2c1)Nc1nnc(CCCCc2nnc(NC(=O)Cc3ccc4ncccc4c3)s2)s1 [Compound 269] | 520 nM
O=C(Cc1cccc(Br)c1)Nc1nnc(CCSCCc2nnc(NC(=O)Cc3cccc(Br)c3)s2)s1 [Compound 270] | 850 nM
COc1ccc(OC)c(CC(=O)Nc2nnc(CCCCc3nnc(NC(=O)Cc4ccccc4)s3)s2)c1 [Compound 271] | 630 nM
O=C(Cc1cccc(F)c1)Nc1nnc(CCCCc2nnc(NC(=O)Cc3cccc(F)c3)s2)s1 [Compound 273] | 70 nM
CC(C(=O)Nc1nnc(CCCCc2nnc(NC(=O)C(C)c3ccccc3Cl)s2)s1)c1ccccc1Cl (stereo not drawn) [Compound 274] | 680 nM
CC(C)(C)OC(=O)N1CCN(Cc2cccc(CC(=O)Nc3nnc(CCSCc4nnc(NC(=O)Cc5cccc(CN6CCN(C(=O)OC(C)(C)C)CC6)c5)s4)s3)c2)CC1 [Compound 275] | 340 nM
O=C(Nc1nnc(CCCCc2nnc(NC(=O)C(O)(CO)c3ccccc3)s2)s1)C(O)(CO)c1ccccc1 (stereo not drawn) [Compound 278] | 160 nM
CC1(C)OCC(C(=O)Nc2nnc(CCCCc3nnc(NC(=O)Cc4ccccc4)s3)s2)(c2ccccc2)O1 (stereo not drawn) [Compound 279] | 7000 nM
